Measurements as given in publication PMC3262007, “A Fluorescence-Based High-Throughput Assay for the Discovery of Exchange Protein Directly Activated by Cyclic AMP (EPAC) Antagonists” (PLoS ONE, 2012).

How the values were obtained:
EPAC2 [1] = target: T1, EPAC2 (Mus musculus, UniProt Q9EQZ6); assay: 8-NBD-cAMP competition / primary screen fluorescence assay; assay type: binding; conditions: for IC50: competition with 8-NBD-cAMP in binding to EPAC2; for dose response of EPAC2/8-NBD-cAMP fluorescence signal: dose-dependent response, Figure 2
T1 construct: when titrated with purified full-length EPAC2; made in house
T1 sequence (Q9EQZ6 1-993 isoform Q9EQZ6-3): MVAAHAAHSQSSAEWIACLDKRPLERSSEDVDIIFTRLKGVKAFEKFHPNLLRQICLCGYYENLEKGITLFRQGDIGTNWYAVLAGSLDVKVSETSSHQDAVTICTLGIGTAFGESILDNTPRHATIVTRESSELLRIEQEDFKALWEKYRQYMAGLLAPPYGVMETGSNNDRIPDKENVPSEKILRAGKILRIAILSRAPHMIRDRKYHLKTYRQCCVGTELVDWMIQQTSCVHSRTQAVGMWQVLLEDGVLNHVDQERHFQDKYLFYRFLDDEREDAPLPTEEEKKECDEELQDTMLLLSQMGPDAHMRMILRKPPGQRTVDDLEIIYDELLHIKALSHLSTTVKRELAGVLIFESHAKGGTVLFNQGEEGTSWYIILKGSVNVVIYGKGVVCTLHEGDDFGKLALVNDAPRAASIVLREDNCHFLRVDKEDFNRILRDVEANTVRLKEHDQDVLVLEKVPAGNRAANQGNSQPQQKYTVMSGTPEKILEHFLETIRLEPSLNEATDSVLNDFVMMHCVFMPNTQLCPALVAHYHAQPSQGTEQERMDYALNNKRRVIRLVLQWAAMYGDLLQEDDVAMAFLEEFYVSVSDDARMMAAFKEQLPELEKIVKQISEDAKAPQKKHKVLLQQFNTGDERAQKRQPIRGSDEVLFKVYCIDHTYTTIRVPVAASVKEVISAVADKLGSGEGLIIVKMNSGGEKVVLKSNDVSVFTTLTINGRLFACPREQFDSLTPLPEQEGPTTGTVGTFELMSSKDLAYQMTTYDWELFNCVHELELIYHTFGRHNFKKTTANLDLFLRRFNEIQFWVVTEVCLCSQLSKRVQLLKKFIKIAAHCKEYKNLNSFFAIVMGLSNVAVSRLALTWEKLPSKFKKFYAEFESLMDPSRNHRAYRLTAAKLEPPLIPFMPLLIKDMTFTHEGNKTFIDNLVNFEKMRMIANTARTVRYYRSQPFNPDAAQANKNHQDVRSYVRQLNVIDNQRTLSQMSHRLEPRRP
Procedure: Primary screen of NCI DTP (Developmental Therapeutics Program) diversity set library was performed in black 96-well microplates from Corning Costar (Cambridge, MA, USA). Briefly, 50 nM EPAC2 solution was prepared in 20 mM Tris buffer, pH 7.5, containing 150 mM NaCl, 1 mM EDTA and 1 mM […]. […] Test compounds were added from 10 mM stock solutions in DMSO. […] Fluorescence intensity signal from 8-NBD probe was recorded at room temperature before and after tested compounds were added using SpectaMaxM2 microplate reader (Molecular Devices, Silicon Valley, CA, USA) with excitation/emission wavelengths set at 470/540 nm.

EPAC2 [2] = target: T1, EPAC2; assay: EPAC2 GEF activity, Rap1 nucleotide exchange (secondary confirmation assay); assay type: biochemical; conditions: 25 µM compound in the presence of 25 µM cAMP
Procedure: Measurement of in vitro guanine nucleotide exchange factor (GEF) activity of EPAC was adapted from a well known fluorescence-based assay using a fluorescent guanine nucleotide analog, and used as a functional confirmation assay for the compounds identified from primary screen. […] Exchange of Mant-GDP by GDP was measured as a decrease in fluorescence intensity over time using a FluoroMax-3 spectrofluorometer with excitation/emission wavelengths set at 366/450 nm. Typically, decay in the fluorescence intensity was recorded over a time course of 6000 s with data points taken every 60 s.

type I PKA holoenzyme = target: T2, type I PKA holoenzyme (Homo sapiens, UniProt P10644); assay: Type I PKA holoenzyme kinase activity (counter screening assay); assay type: biochemical; conditions: 25 µM compound, 0.1 mM cAMP
T2 construct: made in house; host or cells: E. coli
T2 sequence (P10644 whole entry): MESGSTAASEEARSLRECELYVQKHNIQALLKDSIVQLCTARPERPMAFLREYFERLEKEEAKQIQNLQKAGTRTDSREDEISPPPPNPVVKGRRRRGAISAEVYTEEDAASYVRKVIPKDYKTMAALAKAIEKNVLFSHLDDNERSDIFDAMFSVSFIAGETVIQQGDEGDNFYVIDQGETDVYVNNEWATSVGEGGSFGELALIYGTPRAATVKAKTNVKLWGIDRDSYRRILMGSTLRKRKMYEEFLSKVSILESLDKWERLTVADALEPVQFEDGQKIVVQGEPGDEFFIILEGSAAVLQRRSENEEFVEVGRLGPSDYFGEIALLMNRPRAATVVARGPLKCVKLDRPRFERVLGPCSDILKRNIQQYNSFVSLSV
Procedure: (§1) Kinase activities of the type I and II PKA holoenzymes were measured spectrophotometrically in a 96-well plate with a coupled enzyme assay as described previously. In this assay, the formation of the ADP is coupled to the oxidation of NADH by the pyruvate kinase/lactate dehydrogenase reactions so the reaction rate can be determined by following the oxidation of NADH, reflected by a decrease in absorbance at 340 nm. […] Reactions were pre-equilibrated at room temperature and initiated by adding the Kemptide substrate (final concentration 0.26 mM). PKA activities measured in the presence of 25 µM H89, a selective PKA inhibitor, were used as positive controls of PKA inhibition.

type II PKA holoenzyme = target: T3, type II PKA holoenzyme (Homo sapiens, UniProt P31323); assay: Type II PKA holoenzyme kinase activity (counter screening assay); assay type: biochemical; conditions: 25 µM compound, 0.1 mM cAMP
T3 construct: made in house; host or cells: E. coli
T3 sequence (P31323 whole entry): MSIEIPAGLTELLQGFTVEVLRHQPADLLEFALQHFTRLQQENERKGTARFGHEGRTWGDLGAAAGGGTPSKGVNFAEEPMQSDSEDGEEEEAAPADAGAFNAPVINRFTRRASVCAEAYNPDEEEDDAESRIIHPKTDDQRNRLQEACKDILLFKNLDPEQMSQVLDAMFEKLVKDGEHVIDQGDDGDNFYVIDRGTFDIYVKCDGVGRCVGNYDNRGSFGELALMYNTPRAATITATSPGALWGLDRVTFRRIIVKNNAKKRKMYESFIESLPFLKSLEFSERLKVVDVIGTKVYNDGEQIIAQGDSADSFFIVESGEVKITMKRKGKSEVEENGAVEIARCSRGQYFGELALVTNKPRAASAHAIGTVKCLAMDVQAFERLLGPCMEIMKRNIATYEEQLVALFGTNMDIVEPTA
Procedure: as §1

EPAC = conditions: cited from earlier work

SMILES | IC50 (EPAC2 [1]) [µM] | inhibition of cAMP-mediated EPAC2 GEF activity (EPAC2 [2]) | dose response of EPAC2/8-NBD-cAMP fluorescence signal (EPAC2 [1]) | further results
N#Cc1c(NC(=O)C(F)(F)F)sc2c3c(=O)c4ccccc4c(=O)c=3oc3ccccc3c12 [NSC686365] | 7.9 | inhibit EPAC2 GEF activity to basal levels | – | effect on cAMP-induced type I PKA holoenzyme activation (type I PKA holoenzyme): did not significantly alter; effect on cAMP-induced type II PKA holoenzyme activation (type II PKA holoenzyme): did not significantly alter
O=C1C=Cc2ccccc2C1=NNc1cccc2cc(S(=O)(=O)O)ccc12 [NSC45576] | 1.7 | inhibit EPAC2 GEF activity to basal levels | – | effect on cAMP-induced type I PKA holoenzyme activation (type I PKA holoenzyme): did not significantly alter; effect on cAMP-induced type II PKA holoenzyme activation (type II PKA holoenzyme): did not significantly alter
O=C1C=CC2=C(Oc3c(ccc(O)c3O)/C2=C/C=C(O)O)C1=O [NSC119911] | 3.8 | inhibit EPAC2 GEF activity to basal levels | – | type I PKA activity blocked (type I PKA holoenzyme): ~50%; type II PKA activity blocked (type II PKA holoenzyme): ~50%
O=c1[nH]c(=O)c2ncn(C3OC4COP(=O)(O)OC4C3O)c2[nH]1 (stereo not shown) [cXMP, reference compound] | – | – | minimal effects | –
Nc1ncnc2c1nc(Cl)n2[C@@H]1O[C@@H]2COP(=O)(O)O[C@H]2[C@H]1O [8-Cl-cAMP, reference compound] | – | – | significant dose-dependent inhibitions | –
CO[C@@H]1[C@@H]2OP(=O)(O)OC[C@H]2O[C@H]1n1c(Sc2ccc(Cl)cc2)nc2c(N)ncnc21 [8-CPT-2′-O-Me-cAMP, 8-(4-chloro-phenylthio)-2′-O-methyladenosine-3′,5′-cyclic monophosphate] | – | – | – | selectivity towards EPAC over PKA (EPAC): about 100 fold
Nc1ncnc2c1ncn2C1CC2OP(=O)(O)OCC2O1 (stereo not shown) [2′-deoxy-cAMP, reference compound] | – | – | minimal effects | –
